Data taken from patent publication US11780832B2, “Lactivicin compounds, their preparation and use as antibacterial agents” (priority 2021, dated 2023).
≈ marks a conversion by molar mass, not a printed value.

Assays:
Format in all cases: cell-based
[1] = test system: Citrobacter freundii species complex OXA-181; assay: MIC, CLSI broth microdilution; details: Citrobacter freundii species complex, OXA-181; read-out: MIC
Summary of the method: (§1)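 MIC values come from CLSI broth microdilution against clinical and ATCC isolates whose resistance genes had been characterized. Compound dilutions were two-fold, with final concentrations between 16 and 0.0125 μg/mL.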

[2] = test system: Enterobacter cloacae species complex NDM-1; assay: MIC, CLSI broth microdilution
Summary of the method: as §1

[3] = test system: Escherichia coli ATCC 25922; assay: MIC, CLSI broth microdilution; details: ATCC25922
Summary of the method: as §1

Escherichia coli CMY-2 = assay: MIC, CLSI broth microdilution; details: CMY2
Summary of the method: as §1

Escherichia coli SHV-12 = assay: MIC, CLSI broth microdilution; details: SHV12
Summary of the method: as §1

[4] = test system: Klebsiella aerogenes VIM-1, SHV-12; assay: MIC, CLSI broth microdilution
Summary of the method: as §1

[5] = test system: Klebsiella oxytoca KPC-2, TEM-1; assay: MIC, CLSI broth microdilution; details: KPC-2, TEM-1, read-out: MIC
Summary of the method: as §1

[6] = test system: Klebsiella pneumoniae KPC-2; assay: MIC, CLSI broth microdilution; details: KPC2
Summary of the method: as §1

[7] = test system: Klebsiella pneumoniae KPC-3; assay: MIC, CLSI broth microdilution; details: KPC3, KPC-3, read-out: MIC
Summary of the method: as §1

[8] = test system: Klebsiella pneumoniae OXA-163, OXA-1_OXA-30, SHV-1, TEM-1; assay: MIC, CLSI broth microdilution
Summary of the method: (§2)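 Broth microdilution following CLSI guidance was used to obtain MICs. Bacteria, recovered through two passages from skim-milk stocks held at −80 °C, were exposed to doubling dilutions of compound (final 16-0.0125 μg/mL).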

[9] = test system: Klebsiella pneumoniae OXA-48, SHV-1; assay: MIC, CLSI broth microdilution
Summary of the method: as §2

[10] = test system: Klebsiella pneumoniae SHV-12; assay: MIC, CLSI broth microdilution; details: SHV12, SHV-12, read-out: MIC
Summary of the method: as §1

[11] = test system: Pseudomonas aeruginosa ATCC 27853; assay: MIC, CLSI broth microdilution; details: ATCC27853
Summary of the method: as §1

[12] = test system: Pseudomonas aeruginosa AmpC overexpressed; assay: MIC, CLSI broth microdilution
Summary of the method: as §2

[13] = test system: Pseudomonas aeruginosa OprD negative; assay: MIC, CLSI broth microdilution
Summary of the method: as §2

[14] = test system: Citrobacter freundii species complex Elevated AmpC; assay: MIC against Elevated AmpC producing strains, compound alone; details: row r16
Procedure: (§3) Gram-negative and Gram-positive bacterial strains used during the in vitro minimum inhibitory concentration (MIC) determination were obtained either from the American Type Culture Collection (ATCC) or from clinical specimens. All strains were characterized genotypically and the respective antibiotic resistance markers for each strain were identified.
(§4) Isolates were sub-cultured onto appropriate media and stocked in skim milk at −80° C. Following two subcultures from frozen stock, in vitro antimicrobial susceptibility testing was performed using the Clinical and Laboratory Standards Institute (CLSI) broth microdilution method. Briefly, fresh cultures were suspended in culture media to give a final stock inoculum size of 5×10^7 colony forming units per milliliter of broth (CFU/mL). Test compounds were prepared at a stock solution concentration equal to 128 μg/mL, then diluted to give a final an initial working concentration of 32 μg/mL. 100 μL of the stock solutions were added to the first wells in a 96-well plate and were then diluted using a 2-fold dilution method to give a range of 32-0.025 μg/mL. 100 μL of the bacterial suspensions were then added to the 96-well plates to give a final working inoculum size of 5×10^5 CFU/mL. The final compound concentration range was 16-0.0125 μg/mL. […] MICs for comparator agents were determined using custom-designed, in-house prepared 96-well broth microdilution panels.

[15] = test system: Enterobacter cloacae species complex Elevated AmpC; assay: as above
Procedure: as §3, §4

[16] = test system: Escherichia coli Elevated AmpC; assay: as above
Procedure: as §3, §4

[17] = test system: Citrobacter freundii species complex Elevated AmpC; assay: Synergistic activity: MIC in the presence of Avibactam; details: row r16, in the presence of Avibactam @ 4 μg/mL
Procedure: as §4
(§5) The same method used to test the activity of the claimed compounds was used to determine their synergistic activity when combined with a β-lactamase inhibitor except that either a fixed concentration or fixed ratio of a β-lactamase inhibitor was added to the 96-well plates prior to adding the bacteria cultures. Synergistic activity was defined as the reduction of MIC of a given compound when tested using the β-lactamase inhibitor versus testing the compound in the absence of a β-lactamase inhibitor.

[18] = test system: Enterobacter cloacae species complex Elevated AmpC; assay: as above
Procedure: as §4, §5

Escherichia coli CMY-DHA = assay: as above
Procedure: as §4, §5

[19] = test system: Escherichia coli Elevated AmpC; assay: as above
Procedure: as §4, §5

[20] = test system: Klebsiella pneumoniae CMY-DHA; assay: as above; details: row r32, in the presence of Avibactam @ 4 μg/mL
Procedure: as §4, §5

[21] = test system: Proteus mirabilis CMY-DHA; assay: as above; details: row r36, in the presence of Avibactam @ 4 μg/mL
Procedure: as §4, §5

[22] = in the presence of Avibactam @ 4 μg/mL
[23] = strain of row r7, in the presence of Avibactam @ 4 μg/mL
[24] = strain of row r20, in the presence of Avibactam @ 4 μg/mL
[25] = strain of row r26, in the presence of Avibactam @ 4 μg/mL
[26] = strain of row r27, in the presence of Avibactam @ 4 μg/mL
[27] = strain of row r28, in the presence of Avibactam @ 4 μg/mL
[28] = strain of row r29, in the presence of Avibactam @ 4 μg/mL
[29] = strain of row r30, in the presence of Avibactam @ 4 μg/mL
[30] = strain of row r31, in the presence of Avibactam @ 4 μg/mL
[31] = strain of row r34, in the presence of Avibactam @ 4 μg/mL
[32] = strain of row r35, in the presence of Avibactam @ 4 μg/mL
[33] = strain of row r10, in the presence of Avibactam @ 4 μg/mL
[34] = strain of row r11, in the presence of Avibactam @ 4 μg/mL
[35] = strain of row r12, in the presence of Avibactam @ 4 μg/mL
[36] = strain of row r13, in the presence of Avibactam @ 4 μg/mL
[37] = strain of row r14, in the presence of Avibactam @ 4 μg/mL
[38] = strain of row r15, in the presence of Avibactam @ 4 μg/mL

Molecule `Nc1nc(/C(=N/OC2(C(=O)O)CC2)C(=O)N[C@H]2CON(C3(C(=O)O)C[C@H](N4C(=O)c5cc(O)c(O)cc5C4=O)C(=O)O3)C2=O)ns1` (stereo partly drawn) [Cmpd 18, (4S)-2-[(4S)-4-{[(2Z)-2-(5-amino-1,2,4-thiadiazol-3-yl)-2-{[(1-carboxycyclopropyl)oxy]imino}acetyl]amino}-3-oxo-1,2-oxazolidin-2-yl]-4-(5,6-dihydroxy-1,3-dioxo-1,3-dihydro-2H-isoindol-2-yl)-5-oxooxolane-2-carboxylic acid] has an MIC [1] of 0.06 µg/mL (≈ 0.0907 µM), an MIC [2] of 0.5 µg/mL (≈ 0.756 µM) and an MIC [3] of 0.12 µg/mL (≈ 0.181 µM). The MIC (Escherichia coli CMY-2) was 2 µg/mL (≈ 3.02 µM), the MIC (Escherichia coli SHV-12) was 1 µg/mL (≈ 1.51 µM) and the MIC [4] was 0.5 µg/mL (≈ 0.756 µM). For the same molecule, the MIC [5] was 0.0149 µg/mL (≈ 0.0225 µM), the MIC [6] was 0.06 µg/mL (≈ 0.0907 µM) and the MIC [7] was 0.06 µg/mL (≈ 0.0907 µM). It also gave an MIC [8] of 0.12 µg/mL (≈ 0.181 µM), an MIC [9] of 0.0149 µg/mL (≈ 0.0225 µM) and an MIC [10] of 0.03 µg/mL (≈ 0.0454 µM). It also gave an MIC [11] of 0.12 µg/mL (≈ 0.181 µM), an MIC [12] of 1 µg/mL (≈ 1.51 µM) and an MIC [13] of 0.12 µg/mL (≈ 0.181 µM). The MIC [14] was 1 µg/mL (≈ 1.51 µM), the MIC [15] was 1 µg/mL (≈ 1.51 µM) and the MIC ([15]; strain of row r7) was 4 µg/mL (≈ 6.05 µM). The MIC ([15]; strain of row r20) was 0.25 µg/mL (≈ 0.378 µM), the MIC ([16]; strain of row r10) was 0.03 µg/mL (≈ 0.0454 µM) and the MIC ([16]; strain of row r11) was 0.25 µg/mL (≈ 0.378 µM). For the same molecule, the MIC ([16]; strain of row r12) was 0.5 µg/mL (≈ 0.756 µM), the MIC ([16]; strain of row r13) was 0.06 µg/mL (≈ 0.0907 µM) and the MIC ([16]; strain of row r14) was 0.06 µg/mL (≈ 0.0907 µM). For the same molecule, the MIC ([16]; strain of row r15) was 0.25 µg/mL (≈ 0.378 µM), the MIC [17] was 0.03 µg/mL and the MIC [18, 22] was 0.06 µg/mL. The MIC [18, 23] was 0.12 µg/mL, the MIC [18, 24] was “<=0.008 μg/mL” and the MIC (Escherichia coli CMY-DHA; [25]) was 0.03 µg/mL. The MIC (Escherichia coli CMY-DHA; [26]) was “<=0.008 μg/mL”, the MIC (Escherichia coli CMY-DHA; [27]) was 0.03 µg/mL and the MIC (Escherichia coli CMY-DHA; [28]) was 0.06 µg/mL. For the same molecule, the MIC (Escherichia coli CMY-DHA; [29]) was “<=0.008 μg/mL”, the MIC (Escherichia coli CMY-DHA; [30]) was 0.06 µg/mL and the MIC (Escherichia coli CMY-DHA; [31]) was 0.015 µg/mL. For the same molecule, the MIC (Escherichia coli CMY-DHA; [32]) was 0.015 µg/mL, the MIC [19, 33] was “<=0.008 μg/mL” and the MIC [19, 34] was “<=0.008 μg/mL”. The MIC [19, 35] was 0.06 µg/mL, the MIC [19, 36] was “<=0.008 μg/mL” and the MIC [19, 37] was “<=0.008 μg/mL”. It also gave an MIC [19, 38] of 0.06 µg/mL, an MIC [20] of 0.25 µg/mL and an MIC [21] of 0.06 µg/mL.
With `Nc1nc(/C(=N/OC2(C(=O)O)CCOCC2)C(=O)N[C@H]2CON(C3(C(=O)O)C[C@H](N4C(=O)c5cc(O)c(O)nc5C4=O)C(=O)O3)C2=O)cs1` (stereo partly drawn) [Cmpd 26, 4-({(Z)-[1-(2-amino-1,3-thiazol-4-yl)-2-({(4S)-2-[(4S)-2-carboxy-4-(2,3-dihydroxy-5,7-dioxo-5,7-dihydro-6H-pyrrolo[3,4-b]pyridin-6-yl)-5-oxooxolan-2-yl]-3-oxo-1,2-oxazolidin-4-yl}amino)-2-oxoethylidene]amino}oxy)oxane-4-carboxylic acid] the MIC [1] was 0.25 µg/mL (≈ 0.354 µM), the MIC [2] was 2 µg/mL (≈ 2.83 µM) and the MIC [3] was 0.5 µg/mL (≈ 0.709 µM). The MIC (Escherichia coli CMY-2) was 4 µg/mL (≈ 5.67 µM), the MIC (Escherichia coli SHV-12) was 4 µg/mL (≈ 5.67 µM) and the MIC [4] was 0.25 µg/mL (≈ 0.354 µM). For the same molecule, the MIC [5] was 0.0149 µg/mL (≈ 0.0211 µM), the MIC [6] was 0.0149 µg/mL (≈ 0.0211 µM) and the MIC [7] was 0.12 µg/mL (≈ 0.17 µM). It also gave an MIC [8] of 0.12 µg/mL (≈ 0.17 µM), an MIC [9] of 0.0149 µg/mL (≈ 0.0211 µM) and an MIC [10] of 0.06 µg/mL (≈ 0.085 µM). For the same molecule, the MIC [11] was 2 µg/mL (≈ 2.83 µM), the MIC [12] was 4 µg/mL (≈ 5.67 µM) and the MIC [13] was 2 µg/mL (≈ 2.83 µM). The MIC [14] was 1 µg/mL (≈ 1.42 µM), the MIC [15] was 2 µg/mL (≈ 2.83 µM) and the MIC ([15]; strain of row r7) was 4 µg/mL (≈ 5.67 µM). The MIC ([15]; strain of row r20) was 1 µg/mL (≈ 1.42 µM), the MIC ([16]; strain of row r10) was 0.06 µg/mL (≈ 0.085 µM) and the MIC ([16]; strain of row r11) was 0.5 µg/mL (≈ 0.709 µM). For the same molecule, the MIC ([16]; strain of row r12) was 2 µg/mL (≈ 2.83 µM), the MIC ([16]; strain of row r13) was 0.06 µg/mL (≈ 0.085 µM) and the MIC ([16]; strain of row r14) was 0.12 µg/mL (≈ 0.17 µM). The MIC ([16]; strain of row r15) was 0.5 µg/mL (≈ 0.709 µM), the MIC [17] was 0.25 µg/mL and the MIC [18, 22] was 0.25 µg/mL. For the same molecule, the MIC [18, 23] was 0.5 µg/mL, the MIC [18, 24] was “<=0.008 μg/mL” and the MIC (Escherichia coli CMY-DHA; [25]) was 0.25 µg/mL. For the same molecule, the MIC (Escherichia coli CMY-DHA; [26]) was 0.03 µg/mL, the MIC (Escherichia coli CMY-DHA; [27]) was 0.06 µg/mL and the MIC (Escherichia coli CMY-DHA; [28]) was 0.5 µg/mL. The MIC (Escherichia coli CMY-DHA; [29]) was “<=0.008 μg/mL”, the MIC (Escherichia coli CMY-DHA; [30]) was 0.5 µg/mL and the MIC (Escherichia coli CMY-DHA; [31]) was 0.06 µg/mL. It also gave an MIC (Escherichia coli CMY-DHA; [32]) of 0.06 µg/mL, an MIC [19, 33] of 0.015 µg/mL and an MIC [19, 34] of 0.12 µg/mL. For the same molecule, the MIC [19, 35] was 0.25 µg/mL, the MIC [19, 36] was “<=0.008 μg/mL” and the MIC [19, 37] was 0.015 µg/mL. The MIC [19, 38] was 0.12 µg/mL, the MIC [20] was 0.5 µg/mL and the MIC [21] was 0.06 µg/mL.
